# Assay results: PMC12748989 (Nature Communications, 2025)
# Ends that are not written are not given here.
# Tests used:
# MCF7 cells = settings: 24 h
# MCF10A cells = settings: 24 h
# TamR3 cells = settings: 24 h
# PBMC = settings: 12.5 µM
Molecule,IC50 (MCF7 cells) [µM],IC50 (MCF10A cells) [µM],IC50 (TamR3 cells) [µM],"Average (percentage cell inhibition), Mastoparan PBMC (PBMC) [%]","Average (percentage cell inhibition), Dmastoparan MDA-MB231 12.5uM (MDA-MB-231 cells) [%]"
TLLTAIVKLFLK-NH2 [peptide 57],25,14.9,18.1,,
"CC[C@H](C)[C@H](N)C(=O)N[C@@H](CC(N)=O)C(=O)N[C@@H](CC(C)C)C(=O)N[C@@H](CCCCN)C(=O)N[C@@H](C)C(=O)N[C@@H](CC(C)C)C(=O)N[C@@H](C)C(=O)N[C@@H](C)C(=O)N[C@@H](CC(C)C)C(=O)N[C@@H](C)C(=O)N[C@@H](CCCCN)C(=O)N[C@@H](CCCCN)C(=O)N[C@H](C(=O)N[C@@H](CC(C)C)C(N)=O)[C@@H](C)CC [Mastoparan, reference compound]",21.8,16.9,18.4,,
LLQWLLKRLKAK-NH2 [peptide 11],11.5,16,11.4,,
CC[C@H](C)[C@H](N)C(=O)N[C@@H](CC(N)=O)C(=O)N[C@@H](CC(C)C)C(=O)N[C@@H](CCCCN)C(=O)N[C@H](C(=O)N[C@@H](CC(C)C)C(=O)N[C@@H](C)C(=O)N[C@@H](C)C(=O)N[C@@H](CC(C)C)C(=O)N[C@@H](C)C(=O)N[C@@H](CCCCN)C(=O)N[C@@H](CCCCN)C(=O)N[C@H](C(=O)N[C@@H](CC(C)C)C(N)=O)[C@@H](C)CC)[C@@H](C)O [T5],,,,12.9165,39.042
H-INLKALAALAKKLL-NH2 [L13],,,,38.8767,83.7429
CC[C@H](C)[C@H](N)C(=O)N[C@@H](CC(N)=O)C(=O)N[C@@H](CC(C)C)C(=O)N[C@@H](CCCCN)C(=O)N[C@@H](C)C(=O)N[C@@H](CC(C)C)C(=O)N[C@@H](C)C(=O)N[C@@H](Cc1c[nH]cn1)C(=O)N[C@@H](CC(C)C)C(=O)N[C@@H](C)C(=O)N[C@@H](CCCCN)C(=O)N[C@@H](CCCCN)C(=O)N[C@H](C(=O)N[C@@H](CC(C)C)C(N)=O)[C@@H](C)CC [H8],,,,-4.293,53.8201
IILKKLLDFILK-NH2 [peptide 29],16.4,16.8,14.6,,
CC[C@H](C)[C@H](N)C(=O)N[C@@H](CC(N)=O)C(=O)N[C@@H](CC(C)C)C(=O)N[C@@H](CCCCN)C(=O)N[C@@H](CCC(N)=O)C(=O)N[C@@H](CC(C)C)C(=O)N[C@@H](C)C(=O)N[C@@H](C)C(=O)N[C@@H](CC(C)C)C(=O)N[C@@H](C)C(=O)N[C@@H](CCCCN)C(=O)N[C@@H](CCCCN)C(=O)N[C@H](C(=O)N[C@@H](CC(C)C)C(N)=O)[C@@H](C)CC [Q5],,,,0.7115,41.3502
CC[C@H](C)[C@H](N)C(=O)N[C@@H](CC(N)=O)C(=O)N[C@@H](CC(C)C)C(=O)N[C@@H](CCCCN)C(=O)N[C@@H](C)C(=O)N[C@@H](CC(C)C)C(=O)N[C@@H](CO)C(=O)N[C@@H](C)C(=O)N[C@@H](CC(C)C)C(=O)N[C@@H](C)C(=O)N[C@@H](CCCCN)C(=O)N[C@@H](CCCCN)C(=O)N[C@H](C(=O)N[C@@H](CC(C)C)C(N)=O)[C@@H](C)CC [S7],,,,-4.112,34.1343
CC[C@H](C)[C@H](N)C(=O)N[C@@H](CC(N)=O)C(=O)N[C@@H](CC(C)C)C(=O)N[C@@H](CCCCN)C(=O)N[C@@H](C)C(=O)N[C@@H](CC(C)C)C(=O)N[C@@H](C)C(=O)N[C@@H](C)C(=O)N[C@H](C(=O)N[C@@H](C)C(=O)N[C@@H](CCCCN)C(=O)N[C@@H](CCCCN)C(=O)N[C@H](C(=O)N[C@@H](CC(C)C)C(N)=O)[C@@H](C)CC)C(C)C [V9],,,,10.0305,43.1794
CC[C@H](C)[C@H](N)C(=O)N[C@@H](CC(N)=O)C(=O)N[C@@H](CC(C)C)C(=O)N[C@@H](CCCCN)C(=O)N[C@@H](C)C(=O)N[C@@H](CC(C)C)C(=O)N[C@@H](C)C(=O)N[C@@H](C)C(=O)N[C@@H](CC(C)C)C(=O)N[C@@H](C)C(=O)N[C@@H](CCCCN)C(=O)N[C@@H](CCCCN)C(=O)N[C@H](C(=O)N[C@@H](CCC(=O)O)C(N)=O)[C@@H](C)CC [E14],,,,2.998,33.8434
CC[C@H](C)[C@H](N)C(=O)N[C@@H](CC(N)=O)C(=O)N[C@@H](CC(C)C)C(=O)N[C@@H](CCCCN)C(=O)N[C@@H](C)C(=O)N[C@@H](Cc1c[nH]cn1)C(=O)N[C@@H](C)C(=O)N[C@@H](C)C(=O)N[C@@H](CC(C)C)C(=O)N[C@@H](C)C(=O)N[C@@H](CCCCN)C(=O)N[C@@H](CCCCN)C(=O)N[C@H](C(=O)N[C@@H](CC(C)C)C(N)=O)[C@@H](C)CC [H6],,,,-12.6494,1.275
CC[C@H](C)[C@H](N)C(=O)N[C@@H](CC(N)=O)C(=O)N[C@@H](CC(C)C)C(=O)N[C@@H](CCCCN)C(=O)N[C@@H](C)C(=O)N[C@@H](CC(N)=O)C(=O)N[C@@H](C)C(=O)N[C@@H](C)C(=O)N[C@@H](CC(C)C)C(=O)N[C@@H](C)C(=O)N[C@@H](CCCCN)C(=O)N[C@@H](CCCCN)C(=O)N[C@H](C(=O)N[C@@H](CC(C)C)C(N)=O)[C@@H](C)CC [N6],,,,6.768,7.402
CC[C@H](C)[C@H](NC(=O)[C@H](CCCCN)NC(=O)[C@H](CCCCN)NC(=O)[C@H](C)NC(=O)[C@H](CC(C)C)NC(=O)[C@H](C)NC(=O)[C@H](C)NC(=O)[C@H](CC(C)C)NC(=O)[C@H](C)NC(=O)[C@H](CCCCN)NC(=O)[C@H](CC(C)C)NC(=O)[C@H](CC(N)=O)NC(=O)[C@@H](N)Cc1c[nH]c2ccccc12)C(=O)N[C@@H](CC(C)C)C(N)=O [W1],,,,19.8521,42.4034
CC[C@H](C)[C@H](N)C(=O)N[C@@H](CC(N)=O)C(=O)N[C@@H](CC(C)C)C(=O)N[C@@H](CCCCN)C(=O)N[C@@H](C)C(=O)N[C@@H](CC(C)C)C(=O)N[C@@H](C)C(=O)N[C@@H](C)C(=O)N[C@@H](CC(C)C)C(=O)N[C@@H](C)C(=O)N[C@@H](CCCCN)C(=O)N[C@@H](CCCCN)C(=O)NCC(=O)N[C@@H](CC(C)C)C(N)=O [G13],,,,6.832,23.4491
CC[C@H](C)[C@H](N)C(=O)N[C@@H](CC(N)=O)C(=O)N[C@@H](CC(C)C)C(=O)N[C@@H](CCCCN)C(=O)N[C@@H](C)C(=O)N[C@@H](CC(C)C)C(=O)N[C@@H](C)C(=O)N[C@@H](Cc1c[nH]c2ccccc12)C(=O)N[C@@H](CC(C)C)C(=O)N[C@@H](C)C(=O)N[C@@H](CCCCN)C(=O)N[C@@H](CCCCN)C(=O)N[C@H](C(=O)N[C@@H](CC(C)C)C(N)=O)[C@@H](C)CC [W8],,,,51.7838,62.4515
CC[C@H](C)[C@H](N)C(=O)N[C@@H](CC(N)=O)C(=O)N[C@H](C(=O)N[C@@H](CCCCN)C(=O)N[C@@H](C)C(=O)N[C@@H](CC(C)C)C(=O)N[C@@H](C)C(=O)N[C@@H](C)C(=O)N[C@@H](CC(C)C)C(=O)N[C@@H](C)C(=O)N[C@@H](CCCCN)C(=O)N[C@@H](CCCCN)C(=O)N[C@H](C(=O)N[C@@H](CC(C)C)C(N)=O)[C@@H](C)CC)[C@@H](C)O [T3],,,,8.955,21.7833
CC[C@H](C)[C@H](N)C(=O)N[C@@H](CC(N)=O)C(=O)N[C@@H](CC(C)C)C(=O)N[C@@H](CCCCN)C(=O)N[C@@H](C)C(=O)N[C@@H](CC(C)C)C(=O)N[C@@H](C)C(=O)N[C@@H](C)C(=O)N[C@@H](CC(C)C)C(=O)N[C@@H](CCCNC(=N)N)C(=O)N[C@@H](CCCCN)C(=O)N[C@@H](CCCCN)C(=O)N[C@H](C(=O)N[C@@H](CC(C)C)C(N)=O)[C@@H](C)CC [R10],,,,5.821,11.5132
CC[C@H](C)[C@H](N)C(=O)N[C@@H](CC(N)=O)C(=O)N[C@@H](CC(C)C)C(=O)N[C@@H](CCCCN)C(=O)N[C@@H](C)C(=O)N[C@@H](CC(C)C)C(=O)N[C@@H](CCC(=O)O)C(=O)N[C@@H](C)C(=O)N[C@@H](CC(C)C)C(=O)N[C@@H](C)C(=O)N[C@@H](CCCCN)C(=O)N[C@@H](CCCCN)C(=O)N[C@H](C(=O)N[C@@H](CC(C)C)C(N)=O)[C@@H](C)CC [E7],,,,6.221,27.5958
